Results from ChEMBL document CHEMBL5126582, “Discovery of (2-(pyrrolidin-1-yl)thieno[3,2-d]pyrimidin-4-yl)(3,4,5-trimethoxyphenyl)methanone as a novel potent tubulin depolymerizing and vascular disrupting agent” (Eur J Med Chem, 2022).
The source made the active and inactive calls. The rule behind the calls is not given here.

Legend:
HCT-116 = experiment: Antiproliferative activity against human HCT-116 cells assessed as reduction in cell viability incubated for 48 hrs by MTS assay; type: functional, cell-based; conditions: HCT-116, 48 h
HeLa [1] = experiment: Induction of apoptosis in human HeLa cells assessed as necrotic cells at 750 nM incubated for 48 hrs by annexin V FITC and propidium iodide staining based flow cytometry analysis (reference value: 1.85 %); type: functional
HeLa [2] = experiment: Induction of apoptosis in human HeLa cells assessed as viable cells at 100 nM incubated for 48 hrs by annexin V FITC and propidium iodide staining based flow cytometry analysis (reference value: 85.5%); type: functional; conditions: read-out: Activity
HeLa [3] = experiment: Induction of apoptosis in human HeLa cells assessed as late apoptotic cells at 1 uM incubated for 48 hrs by annexin V FITC and propidium iodide staining based flow cytometry analysis (reference value: 8.87%); type: functional
HeLa [4] = experiment: Induction of mitochondrial membrane potential alteration in human HeLa cells assessed as late apoptotic cells at 100 nM measured after 48 hrs by JC1 staining-based flow cytometry analysis (reference value: 0.009%); type: functional
HeLa [5] = experiment: Induction of apoptosis in human HeLa cells assessed as early apoptotic cells at 1 uM incubated for 24 hrs by annexin V FITC and propidium iodide staining based flow cytometry analysis (reference value: 0.12%); type: functional
[6] = Resistance index, ratio of IC50 for antiproliferative activity against human A549/PTX cells assessed as reduction in cell viability to IC50 for antiproliferative activity against human A549 cells assessed as reduction in cell viability; type: functional
Tubulin = Tubulin (Sus scrofa, UniProt P02554+P02550); experiment: Inhibition of pig brain tubulin polymerization incubated for 19 mins by spectrophotometric method
[7] = Metabolic stability in rat liver microsomes incubated for 5 mins in absence of NADPH by HPLC analysis; type: ADME, Microsome
HeLa [8] = experiment: Induction of apoptosis in human HeLa cells assessed as late apoptotic cells at 750 nM incubated for 72 hrs by annexin V FITC and propidium iodide staining based flow cytometry analysis (reference value: 4.70%); type: functional
HeLa [9] = experiment: Induction of cell cycle arrest in human HeLa cells assessed as accumulation of cells at G2/M phase at 100 to 2000 nM incubated for 24 to 48 hrs by […] flow cytometry; type: functional; conditions: dose 100-2000 nM, time 24-48 hrs, DDE = dose-dependent effect
HeLa [10] = experiment: Induction of apoptosis in human HeLa cells assessed as late apoptotic cells at 500 nM incubated for 72 hrs by annexin V FITC and propidium iodide staining based flow cytometry analysis (reference value: 4.70%); type: functional
HeLa [11] = experiment: Induction of apoptosis in human HeLa cells assessed as late apoptotic cells at 100 nM incubated for 24 hrs by annexin V FITC and propidium iodide staining based flow cytometry analysis (reference value: 0.05%); type: functional
HeLa [12] = experiment: Induction of mitochondrial membrane potential alteration in human HeLa cells assessed as early apoptotic cells at 250 nM measured after 48 hrs by JC1 staining-based flow cytometry analysis (reference value: 9.07 %); type: functional
HeLa [13] = experiment: Induction of cell cycle arrest in human HeLa cells assessed as reduction of cells at S phase at 100 to 2000 nM incubated for 24 to 48 hrs by […] flow cytometry; type: functional; conditions: dose 100-2000 nM, time 24-48 hrs
HeLa [14] = experiment: Induction of mitochondrial membrane potential alteration in human HeLa cells assessed as early apoptotic cells at 1 uM measured after 48 hrs by JC1 staining-based flow cytometry analysis (reference value: 9.07 %); type: functional
HeLa [15] = experiment: Antiproliferative activity against human HeLa cells assessed as reduction in cell viability incubated for 48 hrs by MTS assay; type: functional, cell-based
[16] = Metabolic stability in rat liver microsomes assessed as half life incubated for 5 mins in presence of NADPH by HPLC analysis; type: ADME, Microsome
HeLa [17] = experiment: Induction of apoptosis in human HeLa cells assessed as viable cells at 500 nM incubated for 48 hrs by annexin V FITC and propidium iodide staining based flow cytometry analysis (reference value: 85.5%); type: functional; conditions: read-out: Activity
HeLa [18] = experiment: Induction of apoptosis in human HeLa cells assessed as late apoptotic cells at 1 uM incubated for 24 hrs by annexin V FITC and propidium iodide staining based flow cytometry analysis (reference value: 0.05%); type: functional
HeLa [19] = experiment: Induction of apoptosis in human HeLa cells assessed as necrotic cells at 100 nM incubated for 48 hrs by annexin V FITC and propidium iodide staining based flow cytometry analysis (reference value: 1.85 %); type: functional

IC50 (HCT-116): 21 nM
IC50 (Tubulin): 1600 nM
Stability [7]: Stable
IC50 (HeLa [15]): 3 nM
half-life [16]: 17 min
SMILES: COc1cc(C(=O)c2nc(N3CCCC3)nc3ccsc23)cc(OC)c1OC
Activity (HeLa [1]): 22.5%
viability at 0.1 µM (HeLa [2]): 60.7%
Activity (HeLa [3]): 41.2%
Activity (HeLa [4]): 0.02%
Activity (HeLa [5]): 7.23%
Ratio IC50 [6]: 1.7
Activity (HeLa [8]): 21.3%
Activity (HeLa [9]): Dde
Activity (HeLa [10]): 14.5%
Activity (HeLa [11]): 5.04%
Activity (HeLa [12]): 9.45%
Activity (HeLa [13]): Active
Activity (HeLa [14]): 55.3%
viability at 0.5 µM (HeLa [17]): 78.1%
Activity (HeLa [18]): 0.13%
Activity (HeLa [19]): 2.38%
